Measured values as given in patent US10287275B2, “16-member triamilide derivatives and uses thereof” (VICTOR PHARMA CO., LTD. ZHENJIANG, priority 2015, dated 2019).
In brackets after ≈: the same amount, converted by molar mass.

Assays:
Type in all cases: cell-based
[1] = test system: Actinobacillus pleuropneumoniae serotype 1; experiment: Antibacterial MIC, agar-dilution or broth-dilution microtiter test; settings: Strain A: Actinobacillus pleuropneumoniae serotype 1
Description: (§1) The MIC's in Table I and Table II were determined by standard agar-dilution assays or broth-dilution microtiter test.

[2] = test system: Actinobacillus pleuropneumoniae serotype 7; experiment: as above; settings: Strain B: Actinobacillus pleuropneumoniae serotype 7
Description: as §1

[3] = test system: Escherichia coli 25922 (QC strain); experiment: as above; settings: Strain F: Escherichia coli 25922 (QC strain)
Description: as §1

Escherichia coli IN-F6-7 = experiment: as above; settings: INF67; Strain E: Escherichia coli IN-F6-7
Description: as §1

[4] = test system: Klebsiella pneumoniae 3699; experiment: as above; settings: Strain K: Klebsiella pneumoniae 3699
Description: as §1

[5] = test system: Klebsiella pneumoniae 3753; experiment: as above; settings: Strain J: Klebsiella pneumoniae 3753
Description: as §1

Pasteurella 8217 = experiment: as above; settings: Strain C: Pasteurella 8217
Description: as §1

Pasteurella 8229 = experiment: as above; settings: Strain D: Pasteurella 8229
Description: as §1

[6] = test system: Staphylococcus aureus 29213 (QC strain); experiment: as above; settings: Strain H: Staphylococcus aureus 29213 (QC strain)
Description: as §1

[7] = test system: Staphylococcus aureus 5-1; experiment: as above; settings: 51; Strain G: Staphylococcus aureus 5-1
Description: as §1

[8] = test system: Streptococcus pneumoniae 2349; experiment: as above; settings: Strain L: Streptococcus pneumoniae 2349
Description: as §1

[9] = test system: Streptococcus pneumoniae 49619 (QC strain); experiment: as above; settings: Strain M: Streptococcus pneumoniae 49619 (QC strain)
Description: as §1

salmonella LD4-8 = experiment: as above; settings: LD48; Strain I: salmonella LD4-8
Description: as §1

M. gallisepticum BG44T = experiment: Mycoplasma susceptibility testing (MIC); settings: Mycoplasmoides gallisepticum
Description: as §1

M. gallisepticum S6 = experiment: Mycoplasma susceptibility testing (MIC); settings: Mycoplasmoides gallisepticum
Description: as §1

M. hyorinis BTS-7 = experiment: Mycoplasma susceptibility testing (MIC)
Description: as §1

| Compound | MIC (M. gallisepticum BG44T) | MIC (M. gallisepticum S6) | MIC (M. hyorinis BTS-7) | also measured |
| --- | --- | --- | --- | --- |
| CC[C@H]1OC(=O)C[C@@H](O)[C@H](C)[C@@H](O[C@@H]2O[C@H](C)[C@@H](O)[C@H](N(C)C)[C@H]2O)[C@@H](CCN2CCCCC2)C[C@@H](C)C(=O)/C=C/C(C)=C/[C@@H]1CN1CCCC1 [Compound 4d, (4R,5S,6S,7R,9R,11E,13E,15R,16R)-6-(((2R,3R,4S,5S,6R)-4-(dimethylamino)-3,5-dihydroxy-6-methyltetrahydro-2H-pyran-2-yl)oxy)-16-ethyl-4-hydroxy-5,9,13-trimethyl-7-(2-(piperidin-1-yl)ethyl)-15-(pyrrolidin-1-ylmethyl)oxacyclohexadeca-11,13-diene-2,10-dione] |  |  |  | MIC [1]: > 256 µg/mL; MIC [2]: > 256 µg/mL; MIC [3]: > 256 µg/mL; MIC (Escherichia coli IN-F6-7): > 256 µg/mL; MIC [4]: > 256 µg/mL; MIC [5]: > 256 µg/mL; MIC (Pasteurella 8217): 256 µg/mL (≈ 356 µM); MIC (Pasteurella 8229): 128 µg/mL (≈ 178 µM); MIC [6]: 256 µg/mL (≈ 356 µM); MIC [7]: > 256 µg/mL; MIC [8]: 64 µg/mL (≈ 88.9 µM); MIC [9]: > 256 µg/mL; MIC (salmonella LD4-8): > 256 µg/mL |
| CC[C@H]1OC(=O)C[C@@H](O)[C@H](C)[C@@H](O[C@@H]2O[C@H](C)[C@@H](O)[C@H](N(C)C)[C@H]2O)[C@@H](CCN2CCCCC2)C[C@@H](C)C(=O)/C=C/C(C)=C/[C@@H]1CNCc1ccccc1 [Compound 4e, (4R,5S,6S,7R,9R,11E,13E,15R,16R)-15-((benzylamino)methyl)-6-(((2R,3R,4S,5S,6R)-4-(dimethylamino)-3,5-dihydroxy-6-methyltetrahydro-2H-pyran-2-yl)oxy)-16-ethyl-4-hydroxy-5,9,13-trimethyl-7-(2-(piperidin-1-yl)ethyl)oxacyclohexadeca-11,13-diene-2,10-dione] |  |  |  | MIC [1]: 256 µg/mL (≈ 339 µM); MIC [2]: 256 µg/mL (≈ 339 µM); MIC [3]: 256 µg/mL (≈ 339 µM); MIC (Escherichia coli IN-F6-7): 256 µg/mL (≈ 339 µM); MIC [4]: > 256 µg/mL; MIC [5]: > 256 µg/mL; MIC (Pasteurella 8217): 32 µg/mL (≈ 42.3 µM); MIC (Pasteurella 8229): 16 µg/mL (≈ 21.2 µM); MIC [6]: 64 µg/mL (≈ 84.7 µM); MIC [7]: 256 µg/mL (≈ 339 µM); MIC [8]: 64 µg/mL (≈ 84.7 µM); MIC [9]: 256 µg/mL (≈ 339 µM); MIC (salmonella LD4-8): > 256 µg/mL |
| CC[C@H]1OC(=O)C[C@@H](O)[C@H](C)[C@@H](O[C@@H]2O[C@H](C)[C@@H](O)[C@H](N(C)C)[C@H]2O)[C@@H](CCN2CCCCC2)C[C@@H](C)C(=O)/C=C/C(C)=C/[C@@H]1CN(CC)Cc1ccccc1 [Compound 4i, (4R,5S,6S,7R,9R,11E,13E,15R,16R)-15-((benzyl(ethyl)amino)methyl)-6-(((2R,3R,4S,5S,6R)-4-(dimethylamino)-3,5-dihydroxy-6-methyltetrahydro-2H-pyran-2-yl)oxy)-16-ethyl-4-hydroxy-5,9,13-trimethyl-7-(2-(piperidin-1-yl)ethyl)oxacyclohexadeca-11,13-diene-2,10-dione] | < 0.12 µg/mL | < 0.12 µg/mL | 15.6 µg/mL (≈ 19.9 µM) |  |
| CC[C@H]1OC(=O)C[C@@H](O)[C@H](C)[C@@H](O[C@@H]2O[C@H](C)[C@@H](O)[C@H](N(C)C)[C@H]2O)[C@@H](CCN2CCCCC2)C[C@@H](C)C(=O)/C=C/C(C)=C/[C@@H]1CN(Cc1ccccc1)C(C)C [Compound 4j, (4R,5S,6S,7R,9R,11E,13E,15R,16R)-15-((benzyl(isopropyl)amino)methyl)-6-(((2R,3R,4S,5S,6R)-4-(dimethylamino)-3,5-dihydroxy-6-methyltetrahydro-2H-pyran-2-yl)oxy)-16-ethyl-4-hydroxy-5,9,13-trimethyl-7-(2-(piperidin-1-yl)ethyl)oxacyclohexadeca-11,13-diene-2,10-dione] | < 0.12 µg/mL | < 0.12 µg/mL | 0.49 µg/mL (≈ 0.614 µM) |  |

More lines, main results first:

| MIC (M. gallisepticum BG44T) | MIC (M. gallisepticum S6) | MIC (M. hyorinis BTS-7) | Compound | also measured |
| --- | --- | --- | --- | --- |
| < 0.12 µg/mL | < 0.12 µg/mL | 3.91 µg/mL (≈ 4.73 µM) | CC[C@H]1OC(=O)C[C@@H](O)[C@H](C)[C@@H](O[C@@H]2O[C@H](C)[C@@H](O)[C@H](N(C)C)[C@H]2O)[C@@H](CCN2CC(C)CC(C)C2)C[C@@H](C)C(=O)/C=C/C(C)=C/[C@@H]1CN(Cc1ccccc1)C(C)C (stereo partly drawn) [Compound 8a, (4R,5S,6S,7R,9R,11E,13E,15R,16R)-15-((benzyl(isopropyl)amino)methyl)-6-(((2R,3R,4S,5S,6R)-4-(dimethylamino)-3,5-dihydroxy-6-methyltetrahydro-2H-pyran-2-yl)oxy)-7-(2-(3,5-dimethylpiperidin-1-yl)ethyl)-16-ethyl-4-hydroxy-5,9,13-trimethyloxacyclohexadeca-11,13-diene-2,10-dione] |  |
| 0.98 µg/mL (≈ 1.23 µM) | 3.91 µg/mL (≈ 4.89 µM) | 125 µg/mL (≈ 156 µM) | CC[C@H]1OC(=O)C[C@@H](O)[C@H](C)[C@@H](O[C@@H]2O[C@H](C)[C@@H](O)[C@H](N(C)C)[C@H]2O)[C@@H](CCN2CC(C)CC(C)C2)C[C@@H](C)C(=O)/C=C/C(C)=C/[C@@H]1CN(C)Cc1cccnc1 (stereo partly drawn) [Compound 8b, (4R,5S,6S,7R,9R,11E,13E,15R,16R)-6-(((2R,3R,4S,5S,6R)-4-(dimethylamino)-3,5-dihydroxy-6-methyltetrahydro-2H-pyran-2-yl)oxy)-7-(2-(3,5-dimethylpiperidin-1-yl)ethyl)-16-ethyl-4-hydroxy-5,9,13-trimethyl-15-((methyl(pyridin-3-ylmethyl)amino)methyl)oxacyclohexadeca-11,13-diene-2,10-dione] |  |
| 7.82 µg/mL (≈ 9.82 µM) | 15.6 µg/mL (≈ 19.6 µM) | 125 µg/mL (≈ 157 µM) | CC[C@H]1OC(=O)C[C@@H](O)[C@H](C)[C@@H](O[C@@H]2O[C@H](C)[C@@H](O)[C@H](N(C)C)[C@H]2O)[C@@H](CCN2CC(C)CC(C)C2)C[C@@H](C)C(=O)/C=C/C(C)=C/[C@@H]1CN1Cc2ccccc2C1 (stereo partly drawn) [Compound 8c, (4R,5S,6S,7R,9R,11E,13E,15R,16R)-6-(((2R,3R,4S,5S,6R)-4-(dimethylamino)-3,5-dihydroxy-6-methyltetrahydro-2H-pyran-2-yl)oxy)-7-(2-(3,5-dimethylpiperidin-1-yl)ethyl)-16-ethyl-4-hydroxy-15-(isoindolin-2-ylmethyl)-5,9,13-trimethyloxacyclohexadeca-11,13-diene-2,10-dione] |  |
| < 0.12 µg/mL | < 0.12 µg/mL | 15.6 µg/mL (≈ 19.4 µM) | CC[C@H]1OC(=O)C[C@@H](O)[C@H](C)[C@@H](O[C@@H]2O[C@H](C)[C@@H](O)[C@H](N(C)C)[C@H]2O)[C@@H](CCN2Cc3ccccc3C2)C[C@@H](C)C(=O)/C=C/C(C)=C/[C@@H]1CN(C)Cc1ccccc1 [Compound 12a, (4R,5S,6S,7R,9R,11E,13E,15R,16R)-15-((benzyl(methyl)amino)methyl)-6-(((2R,3R,4S,5S,6R)-4-(dimethylamino)-3,5-dihydroxy-6-methyltetrahydro-2H-pyran-2-yl)oxy)-16-ethyl-4-hydroxy-7-(2-(isoindolin-2-yl)ethyl)-5,9,13-trimethyloxacyclohexadeca-11,13-diene-2,10-dione] |  |
| < 0.12 µg/mL | < 0.12 µg/mL | 3.91 µg/mL (≈ 5.09 µM) | CC[C@H]1OC(=O)C[C@@H](O)[C@H](C)[C@@H](O[C@@H]2O[C@H](C)[C@@H](O)[C@H](N(C)C)[C@H]2O)[C@@H](CCN2Cc3ccccc3C2)C[C@@H](C)C(=O)/C=C/C(C)=C/[C@@H]1CN1CCCCC1 [Compound 12b, (4R,5S,6S,7R,9R,11E,13E,15R,16R)-6-(((2R,3R,4S,5S,6R)-4-(dimethylamino)-3,5-dihydroxy-6-methyltetrahydro-2H-pyran-2-yl)oxy)-16-ethyl-4-hydroxy-7-(2-(isoindolin-2-yl)ethyl)-5,9,13-trimethyl-15-(piperidin-1-ylmethyl)oxacyclohexadeca-11,13-diene-2,10-dione] |  |
| < 0.12 µg/mL | < 0.12 µg/mL | 7.82 µg/mL (≈ 10.3 µM) | CC[C@H]1OC(=O)C[C@@H](O)[C@H](C)[C@@H](O[C@@H]2O[C@H](C)[C@@H](O)[C@H](N(C)C)[C@H]2O)[C@@H](CCN2Cc3ccccc3C2)C[C@@H](C)C(=O)/C=C/C(C)=C/[C@@H]1CN(CC)CC [Compound 12c, (4R,5S,6S,7R,9R,11E,13E,15R,16R)-15-((diethylamino)methyl)-6-(((2R,3R,4S,5S,6R)-4-(dimethylamino)-3,5-dihydroxy-6-methyltetrahydro-2H-pyran-2-yl)oxy)-16-ethyl-4-hydroxy-7-(2-(isoindolin-2-yl)ethyl)-5,9,13-trimethyloxacyclohexadeca-11,13-diene-2,10-dione] |  |
| < 0.12 µg/mL | < 0.12 µg/mL | 3.91 µg/mL (≈ 4.91 µM) | CC[C@H]1OC(=O)C[C@@H](O)[C@H](C)[C@@H](O[C@@H]2O[C@H](C)[C@@H](O)[C@H](N(C)C)[C@H]2O)[C@@H](CCN2Cc3ccccc3C2)C[C@@H](C)C(=O)/C=C/C(C)=C/[C@@H]1CN1CC(C)CC(C)C1 (stereo partly drawn) [Compound 12d, (4R,5S,6S,7R,9R,11E,13E,15R,16R)-6-(((2R,3R,4S,5S,6R)-4-(dimethylamino)-3,5-dihydroxy-6-methyltetrahydro-2H-pyran-2-yl)oxy)-15-((3,5-dimethylpiperidin-1-yl)methyl)-16-ethyl-4-hydroxy-7-(2-(isoindolin-2-yl)ethyl)-5,9,13-trimethyloxacyclohexadeca-11,13-diene-2,10-dione] |  |
